Earlier results as cited in US20230114993A1 (priority 2019, published 2023).

Test system: CADASIL
Details: compared to placebo, CADASIL patients

SMILES: COc1cc2c(cc1OC)C(=O)C(CC1CCN(Cc3ccccc3)CC1)C2 (stereo not shown) [donepezil]
- Treatment effect in cognitive and executive function assessments: failed to show any treatment effect
